In this experiment the target is T1, human FSH receptor (Homo sapiens, UniProt P23945).
T1 construct: expressed in transfected cells; host or cells: Chinese Hamster Ovary (CHO) cells, stably transfected, cotransfected with CRE/promotor-firefly luciferase reporter
T1 sequence (P23945 18-695): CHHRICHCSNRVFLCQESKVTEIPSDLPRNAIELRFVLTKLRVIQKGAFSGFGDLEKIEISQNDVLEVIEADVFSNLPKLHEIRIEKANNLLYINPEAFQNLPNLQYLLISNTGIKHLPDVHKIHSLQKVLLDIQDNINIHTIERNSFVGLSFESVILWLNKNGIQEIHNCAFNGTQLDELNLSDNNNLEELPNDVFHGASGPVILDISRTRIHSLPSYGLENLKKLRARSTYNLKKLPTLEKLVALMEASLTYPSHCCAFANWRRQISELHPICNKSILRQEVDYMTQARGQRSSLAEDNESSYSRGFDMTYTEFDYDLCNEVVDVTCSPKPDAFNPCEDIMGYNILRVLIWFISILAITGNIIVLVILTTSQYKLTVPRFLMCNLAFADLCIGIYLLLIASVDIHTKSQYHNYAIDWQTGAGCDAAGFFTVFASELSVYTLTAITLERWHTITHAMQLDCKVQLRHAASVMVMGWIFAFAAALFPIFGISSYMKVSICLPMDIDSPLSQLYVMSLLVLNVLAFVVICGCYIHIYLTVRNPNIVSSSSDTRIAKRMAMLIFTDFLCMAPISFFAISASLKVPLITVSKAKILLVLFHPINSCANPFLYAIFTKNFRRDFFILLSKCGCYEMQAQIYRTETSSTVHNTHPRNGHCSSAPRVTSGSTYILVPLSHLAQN
Description: Agonistic activity of compounds at the human FSH receptor expressed in CHO cells, CRE/luciferase reporter (hFSHRago (CHO luc)). Format: cell-based. Particulars: CHO cells stably transfected with the human FSH receptor and CRE/firefly luciferase reporter; 4 hours of incubation; half-maximal stimulation relative to the compound's own maximal effect; read-out: hFSHRago (CHO luc) EC50. From the text: The term EC50 means the concentration of the test compound that elicits half-maximal (50 %) stimulation compared to the compound's maximally attainable effect. The values can be determined e.g. in a cell line transfected with a FSH receptor gene and cotransfected with a cAMP responsive element/promoter directing the expression of a reporter gene. Values can be determined using a software program such as MathIQ (version 2.0, ID Business Solutions Limited).
Agonistic activity of the compounds at the human FSH receptor was determined in Chinese Hamster Ovary (CHO) cells stably transfected with the human FSH receptor and cotransfected with a cAMP responsive element (CRE)/promotor directing the expression of a firefly luciferase reporter gene. Binding of the compounds to the Gs protein-coupled FSH receptor will result in an increase of cAMP, which in turn will induce an increased transactivation of the luciferase reporter. Cells (7,500 cells/well of a 384 well plate) were incubated in Dulbecco' minimal essential F12 modified medium (Invitrogen), supplemented with 1 µg/ml bovine insulin, 5 µg/ml human apo-transferrin, 80 U/ml penicillin G and 80 µg/ml streptomycin with the test compounds (concentration between 0.0316 nM and 10.0 µM) in duplicate in a humidified atmosphere (95%) at 5-7% CO2 and 37°C. The final concentration of DMSO was 1%. After 4 hours of incubation, plates were allowed to adjust to room temperature for 1 hour. Then, Luclite (PerkinElmer) solution was added to the wells and cells were allowed to lyse for at least 1 hour at room temperature. Subsequently, luciferase activity was measured in a luminescence counter. The signal is expressed as counts per second (cps). The EC50 (concentration of the test compound that elicits half-maximal (50 %) luciferase stimulation compared to the compound's maximally attainable effect) and efficacy values (maximal effect of the test compound as percentage of the maximal effect of recombinant human FSH) of the compounds were determined using the software program MathIQ (version 2.0, ID Business Solutions Limited). EC50 data are indicated at the synthesis examples.
A general note: In a reporter assay the amount or activity of a reporter protein is the signal.
Usually EC50 stands for the concentration at which the effect is half-maximal. As for `COc1cc2c(cc1C(=O)NC(C)C)-c1c(-c3cccs3)nc(C(=O)N(C)C(C)(C)C)n1CC2` [Example 5, 8-Methoxy-1-thiophen-2-yl-5,6-dihydro-imidazo[5,1-a]isoquinoline-3,9-dicarboxylic acid 3-(tert-butyl-methyl-amide) 9-isopropylamide], the EC50 was 18 nM.
`COc1cc2c(cc1N)-c1c(-c3cccs3)nc(C(=O)N(C)C(C)(C)C)n1CC2` [Example 6b, 9-Amino-8-methoxy-1-thiophen-2-yl-5,6-dihydro-imidazo[5,1-a]isoquinoline-3-carboxylic acid tert-butyl-methyl-amide]: the EC50 is 740 nM.
With `COc1cc2c(cc1NC(=O)C(C)O)-c1c(-c3cccs3)nc(C(=O)N(C)C(C)(C)C)n1CC2` (stereo not shown) [Example 7, 9-(2-Hydroxy-propionylamino)-8-methoxy-1-thiophen-2-yl-5,6-dihydro-imidazo[5,1-a]isoquinoline-3-carboxylic acid tert-butyl-methyl-amide] the figure was 35 nM; with `COc1cc2c(cc1NC(=O)[C@H](C)N)-c1c(-c3cccs3)nc(C(=O)N(C)C(C)(C)C)n1CC2` [Example 8, 9-((S)-2-Amino-propionylamino)-8-methoxy-1-thiophen-2-yl-5,6-dihydro-imidazo[5,1-a]isoquinoline-3-carboxylic acid tert-butyl-methyl-amide], 49 nM; with `COc1cc2c(cc1NC(=O)c1cccnc1)-c1c(-c3cccs3)nc(C(=O)N(C)C(C)(C)C)n1CC2` [Example 9, 8-Methoxy-9-[(pyridine-3-carbonyl)-amino]-1-thiophen-2-yl-5,6-dihydro-imidazo[5,1-a]isoquinoline-3-carboxylic acid tert-buyl-methyl-amide], 224 nM.
Turning to `COc1cc2c(cc1NC(=O)c1nccs1)-c1c(-c3cccs3)nc(C(=O)N(C)C(C)(C)C)n1CC2` [Example 10, 8-Methoxy-9-[(thiazole-2-carbonyl)-amino]-1-thiophen-2-yl-5,6-dihydro-imidazo[5,1-a]isoquinoline-3-carboxylic acid tert-butyl-methyl-amide], the concentration giving a half-maximal response (EC50) was 12 nM.
The value for `COc1cc2c(cc1NC(=O)c1cscn1)-c1c(-c3cccs3)nc(C(=O)N(C)C(C)(C)C)n1CC2` [Example 11, 8-Methoxy-9-[(thiazole-4-carbonyl)-amino]-1-thiophen-2-yl-5,6-dihydro-imidazo[5,1-a]isoquinoline-3-carboxylic acid tert-butyl-methyl-amide] was 13 nM; that for `COc1cc2c(cc1NC(=O)c1csnn1)-c1c(-c3cccs3)nc(C(=O)N(C)C(C)(C)C)n1CC2` [Example 12, 8-Methoxy-9-[([1,2,3]thiadiazole-4-carbonyl)-amino]-1-thiophen-2-yl-5,6-dihydro-imidazo[5,1-a]isoquinoline-3-carboxylic acid tert-butyl-methyl-amide] was 15 nM.
With `CCN(C)CC(=O)Nc1cc2c(cc1OC)CCn1c(C(=O)N(C)C(C)(C)C)nc(-c3cccs3)c1-2` [Example 13b, 9-[2-(Ethyl-methyl-amino)-acetylamino]-8-methoxy-1-thiophen-2-yl-5,6-dihydro-imidazo[5,1-a]isoquinoline-3-carboxylic acid tert-butyl-methyl-amide] the figure was 26 nM; with `COc1cc2c(cc1NC(=O)CN1CCOCC1)-c1c(-c3cccs3)nc(C(=O)N(C)C(C)(C)C)n1CC2` [Example 14, 8-Methoxy-9-(2-morpholin-4-yl-acetylamino)-1-thiophen-2-yl-5,6-dihydro-imidazo[5,1-a]isoquinoline-3-carboxylic acid tert-butyl-methyl-amide], 10 nM.
With `COc1cc2ccn3c(C(=O)N(C)C(C)(C)C)nc(-c4cccs4)c3c2cc1C=C(C)C` [Example 16e, 8-Methoxy-9-(2-methyl-propenyl)-1-thiophen-2-yl-imidazo[5,1-a]isoquinoline-3-carboxylic acid tert-butyl-methyl-amide] the figure was 9 nM; with `COc1cc2ccn3c(C(=O)N(C)C(C)(C)C)nc(-c4cccs4)c3c2cc1-c1cnn(C)c1` [Example 17b, 8-Methoxy-9-(1-methyl-1H-pyrazol-4-yl)-1-thiophen-2-yl-imidazo[5,1-a]isoquinoline-3-carboxylic acid tert-butyl-methyl-amide], 23 nM; with `COc1cc2c(cc1CC(C)C)-c1c(-c3cccs3)nc(C(=O)N(C)C(C)(C)C)n1CC2` [Example 18k, 9-Isobutyl-8-methoxy-1-thiophen-2-yl-5,6-dihydro-imidazo[5,1-a]isoquinoline-3-carboxylic acid tert-butyl-methyl-amide], 8 nM.
Turning to `C=Cc1cc2c(cc1CC(C)C)-c1c(-c3cccs3)nc(C(=O)N(C)C(C)(C)C)n1CC2` [Example 19d, 9-Isobutyl-1-thiophen-2-yl-8-vinyl-5,6-dihydro-imidazo[5,1-a]isoquinoline-3-carboxylic acid tert-butyl-methyl-amide], the EC50 is 76 nM.
With `CCc1cc2c(cc1CC(C)C)-c1c(-c3cccs3)nc(C(=O)N(C)C(C)(C)C)n1CC2` [Example 19e, 8-Ethyl-9-isobutyl-1-thiophen-2-yl-5,6-dihydro-imidazo[5,1-a]isoquinoline-3-carboxylic acid tert-butyl-methyl-amide] the figure was 200 nM; with `CC(C)Cc1ccc2c(c1)-c1c(-c3cccs3)nc(C(=O)N(C)C(C)(C)C)n1CC2` [Example 20b, 9-Isobutyl-1-thiophen-2-yl-5,6-dihydro-imidazo[5,1-a]isoquinoline-3-carboxylic acid tert-butyl-methyl-amide], 407 nM.
The value for `CCN(C(=O)c1nc(-c2cccs2)c2n1CCc1cc(OC)c(OC(C)C)cc1-2)C(C)(C)C` [Example 21f, 9-Isopropoxy-8-methoxy-1-thiophen-2-yl-5,6-dihydro-imidazo[5,1-a]isoquinoline-3-carboxylic acid tert-butyl-ethyl-amide] was 0.9 nM; that for `COc1cc2c(cc1OC(C)C)-c1c(-c3cccs3)nc(C(=O)N3CCCC3(C)C)n1CC2` [Example 22, (2,2-Dimethyl-pyrrolidin-1-yl)-(9-isopropoxy-8-methoxy-1-thiophen-2-yl-5,6-dihydro-imidazo[5,1-a]isoquinolin-3-yl)-methanone] was 3 nM; that for `CCC1CCCN1C(=O)c1nc(-c2cccs2)c2n1CCc1cc(OC)c(OC(C)C)cc1-2` (stereo not shown) [Example 23, (2-Ethyl-pyrrolidin-1-yl)-(9-isopropoxy-8-methoxy-1-thiophen-2-yl-5,6-dihydro-imidazo[5,1-a]isoquinolin-3-yl)-methanone] was 63 nM.
The value for `COc1cc2c(cc1OC)-c1c(-c3cccs3)nc(C(=O)N3CCCC3C)n1CC2` (stereo not shown) [Example 24c, (2-Methyl-pyrrolidin-1-yl)-(9-methoxy-8-methoxy-1-thiophen-2-yl-5,6-dihydro-imidazo[5,1-a]isoquinolin-3-yl)-methanone] was 333 nM; that for `COc1cc2c(cc1OC)-c1c(-c3cccs3)nc(C(=O)N(CCO)C(C)C)n1CC2` [Example 25, 8,9-Dimethoxy-1-thiophen-2-yl-5,6-dihydro-imidazo[5,1-a]isoquinoline-3-carboxylic acid (2-hydroxy-ethyl)-isopropyl-amide] was 138 nM; that for `COc1cc2c(cc1OC)-c1c(-c3cccs3)nc(C(=O)N3CCCOCC3)n1CC2` [Example 26, (8,9-Dimethoxy-1-thiophen-2-yl-5,6-dihydro-imidazo[5,1-a]isoquinolin-3-yl)-[1,4]oxazepan-4-yl-methanone] was 314 nM.
